Tested on: lashes and adjacent hairs of patients
Assay: lash and hair appearance in glaucoma patients treated in only one eye
Type: in vivo, human
Conditions: unilateral treatment
Description: In the course of treating patients having glaucoma, treatment may only be appropriate in one eye. […] The lash appearance on the lids of the treated eyes would have appeared quite attractive if it represented a bilateral phenomenon. As a result of its asymmetric nature, the long lashes on one side could be construed as disturbing from a cosmetic standpoint. A systemic examination was preformed as a result of the asymmetric phenomenon. It soon became apparent that this altered appearance was not an isolated finding. […] Definite differences could be identified to varying degrees in the lashes and adjacent hairs of all patients who were taking the drug on a unilateral basis for longer than 6 months.
The changes in the lashes were apparent on gross inspection in several patients once attention was focused on the issue. In those with light colored hair and lashes, the differences were only seen easily with the aid of the high magnification and lighting capabilities of the slit lamp biomicroscope. In the course of glaucoma follow-up examination, attention is generally immediately focused on the eye itself. As a result of the high power magnification needed only one eye is seen at a time and the eye is seen at a high enough power that the lashes are not in focus. […]

CCNC(=O)CCC/C=C\C[C@@H]1[C@@H](/C=C/[C@@H](O)CCc2ccccc2)[C@H](O)C[C@@H]1O [bimatoprost]
lash growth, treated eye versus non-treated eye: longer, thicker, and fuller in the treated eye than in the non-treated eye
